# Results as given in patent publication US8552031B2, “3-ethylidenehydrazino substituted heterocyclic compounds as thrombopoietin receptor activators” (Nissan Chemical Industries, Ltd., priority 2004, dated 2013).
# Read-outs that look alike come from different tables or passages of the source.
# Assays:
# [1] = target: T1, human TPO receptor (c-mp1) (Homo sapiens, UniProt P40238); assay: Stimulation of proliferation of TPO-dependent cell line UT7/EPO-mpl (WST-8); assay type: cell-based; conditions: for EC50: concentration that yields a growth rate corresponding to 50% of the growth of UT-7/EPO-mpl observed in the presence of 10 ng/ml TPO
# T1 construct: expressed in transfected cells
# T1 sequence (P40238 26-635): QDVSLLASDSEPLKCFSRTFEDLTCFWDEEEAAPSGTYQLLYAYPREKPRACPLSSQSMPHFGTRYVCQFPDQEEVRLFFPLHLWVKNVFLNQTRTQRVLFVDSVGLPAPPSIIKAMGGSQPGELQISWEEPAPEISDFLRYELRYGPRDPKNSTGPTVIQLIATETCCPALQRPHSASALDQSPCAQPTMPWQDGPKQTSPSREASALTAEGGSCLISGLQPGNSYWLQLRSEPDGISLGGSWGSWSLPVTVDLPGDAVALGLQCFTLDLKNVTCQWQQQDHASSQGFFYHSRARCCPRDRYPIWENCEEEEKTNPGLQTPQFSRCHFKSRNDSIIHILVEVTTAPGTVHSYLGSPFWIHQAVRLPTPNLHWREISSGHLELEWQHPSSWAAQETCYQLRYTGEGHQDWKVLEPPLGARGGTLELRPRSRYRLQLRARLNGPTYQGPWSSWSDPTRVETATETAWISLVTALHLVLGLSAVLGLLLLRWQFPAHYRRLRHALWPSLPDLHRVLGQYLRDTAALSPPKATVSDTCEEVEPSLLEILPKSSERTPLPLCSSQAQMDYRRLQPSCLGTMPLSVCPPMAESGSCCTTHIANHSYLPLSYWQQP
# Method: The reactivity of the compound of Synthetic Example 4 of the present invention with thrombopoietin (TPO) receptor was assayed using a human leukemic cell line, UT7/EPO-mpl.
# (§1) UT7/EPO-mpl is a stable transformed cell line obtained by introducing into human leukemic cell line UT7/EPO a vector that induces expression of human TPO receptor (c-mp1) under control of cytomegalovirus immediate-early promoter by the method of Takatoku et al. (J. Biol. Chem., 272:7259-7263 (1997)). […] These two cell lines were subcultured in Iscove's modified Dulbecco's medium (IMDM; GIBCO) containing 10% fetal bovine serum (FBS; Thermo Electron or BioWest) using a CO2 incubator (5% CO2, 37° C.).
# (§2) The subcultured cells described above were washed twice with phosphate buffered saline (PBS) and suspended in IMDM containing 10% FBS at a cell density of 6×10^4 cells/ml. The cell suspension was transferred to a 96-well tissue culture plate (CORNING) in 100-μl aliquots. Then either TPO (Pepro Tech EC) or the compound of Synthetic Example 4 dissolved in dimethyl sulfoxide (DMSO) was diluted 83-fold with IMDM containing 10% FBS and added to the aforementioned cell suspension in 20-μl aliquots. The cell suspension was incubated in a CO2 incubator (5% CO2, 37° C.) for 4 days. Cell proliferation was assayed using WST-8 reagent (Kishida Chemical Co., Ltd.) according to instructions by the manufacturer. A 10-μl aliquot of 5 mM WST-8 reagent solution was added to each well of the tissue culture plate, and the plate was incubated at 37° C. for 4 h. The formazan pigment generated was detected by measuring the absorbance at 450 nm with a 96-well microplate reader (Nihon Molecular Devices, Spectramax 190).
# The compounds of the following Synthetic Examples were tested according to the method of Assay Example 1 to determine the concentration of each compound that yields a growth rate corresponding to 50% of the growth of human leukemic cell line UT-7/EPO-mpl observed in the presence of 10 ng/ml TPO (EC50).
# UT7/EPO cells = assay: Proliferation of mother cell line UT7/EPO expressing no TPO receptor (WST-8); assay type: cell-based, human; conditions: FIG. 2, 4 days incubation
# Method: as §1
# as §2, with “A 10-μl aliquot of 5 mM WST-8 reagent solution was added to each well of the tissue culture plate, and the plate was incubated at 37° C. for 4 h.” left out
# [2] = 4 days incubation, read-out: EC50 (converted)
"EC50 [1, 2] [µM]",SMILES,other results
0.0637,"COC(=O)C1CCN(C(=S)NN=C(C)c2csc(-c3ccc(Cl)c(Cl)c3)c2O)CC1 [Synthetic Example 1, methyl 1-{1-[5-(3,4-dichlorophenyl)-4-hydroxythiophen-3-yl]-ethylidene-hydrazinothiocarbonyl}-piperidine-4-carboxylate]",–
0.00677,"CC(=NNC(=S)N1CCC(C(=O)O)CC1)c1csc(-c2ccc(Cl)c(Cl)c2)c1O [Synthetic Example 2, 1-{1-[5-(3,4-dichlorophenyl)-4-hydroxythiophen-3-yl]-ethylidene-hydrazinothiocarbonyl}-piperidine-4-carboxylic acid]",–
0.0555,"COC(=O)CNC(=S)NN=C(C)c1csc(-c2ccc(Cl)c(Cl)c2)c1O [Synthetic Example 3, methyl 2-[(2-{1-[5-(3,4-dichlorophenyl)-4-hydroxythiophen-3-yl]-ethylidene}-hydrazinocarbonothioyl)amino]acetate]",–
–,"CC(=NNC(=S)NCC(=O)O)c1csc(-c2ccc(Cl)c(Cl)c2)c1O [Synthetic Example 4, 2-[(2-{1-[5-(3,4-dichlorophenyl)-4-hydroxythiophen-3-yl]-etylidene}-hydrazinocarbonothioyl)amino]acetic acid]","proliferation of TPO-responsive UT7/EPO-mpl cells ([1]; FIG. 1, 4 days incubation, WST-8, absorbance at 450 nm): stimulated by the compound of Synthetic Example 4 in a concentration-dependent manner; EC50 ([1]; 4 days incubation): 5.6 ng/mL; selectivity of action on the TPO receptor ([1]; concluded from UT7/EPO-mpl versus UT7/EPO proliferation (FIG. 1, FIG. 2)): acts on the TPO receptor selectively as an activator; effect on proliferation of UT7/EPO, the mother cell line (UT7/EPO cells): no effect"
0.0672,"COC(=O)CCNC(=S)NN=C(C)c1csc(-c2ccc(Cl)c(Cl)c2)c1O [Synthetic Example 5, methyl 3-[(2-{1-[5-(3,4-dichlorophenyl)-4-hydroxythiophen-3-yl]-ethylidene}-hydrazinocarbonothioyl)amino]propionate]",–
0.0324,"CC(=NNC(=S)NCCC(=O)O)c1csc(-c2ccc(Cl)c(Cl)c2)c1O [Synthetic Example 6, 3-[(2-{1-[5-(3,4-dichlorophenyl)-4-hydroxythiophen-3-yl]-ethylidene}-hydrazinocarbonothioyl)amino]propionic acid]",–
0.0669,"COCCNC(=S)NN=C(C)c1csc(-c2ccc(Cl)c(Cl)c2)c1O [Synthetic Example 7, 1-(2-{1-[5-(3,4-dichlorophenyl)-4-hydroxythiophen-3-yl]-ethylidene}-hydrazinocarbonothioyl)amino-2-methoxyethane]",–
0.0504,"COC(=O)C1CCN(C(=S)NN=C(C)c2csc(-c3ccc(Br)cc3)c2O)CC1 [Synthetic Example 8, methyl 1-{1-[5-(4-bromophenyl)-4-hydroxy-thiophen-3-yl]-ethylidene-hydrazinothiocarbonyl}-piperidine-4-carboxylate]",–
0.00477,"CC(=NNC(=S)N1CCC(C(=O)O)CC1)c1csc(-c2ccc(Br)cc2)c1O [Synthetic Example 9, 1-{1-[5-(4-bromophenyl)-4-hydroxy-thiophen-3-yl]-ethylidene-hydrazinothiocarbonyl}-piperidin-4-carboxylic acid]",–
0.00573,"CC(=NNC(=S)N1CCC(C(=O)O)CC1)c1csc(-c2ccc(C(F)(F)F)cc2)c1O [Synthetic Example 10, 1-{1-[4-hydroxy-5-(4-trifluoromethylphenyl)-thiophen-3-yl]-ethylidene-hydrazinothiocarbonyl}-piperidine-4-carboxylic acid]",–
0.00595,"CC(=NNC(=S)N1CCC(C(=O)O)CC1)c1csc(-c2ccc(OC(F)(F)F)cc2)c1O [Synthetic Example 11, 1-{1-[5-(4-trifluoromethoxyphenyl)-4-hydroxythiophen-3-yl]-ethylidene-hydrazinothiocarbonyl}-piperidine-4-carboxylic acid]",–
0.00479,"CC(=NNC(=S)N1CCC(C(=O)O)CC1)c1csc(-c2ccc(Cl)cc2)c1O [Synthetic Example 12, 1-{1-[5-(4-chlorophenyl)-4-hydroxy-thiophen-3-yl]-ethilidene-hydrazinothiocarbonyl}-piperidine-4-carboxylic acid]",–
0.00602,"CC(=NNC(=S)N1CCC(C(=O)O)CC1)c1csc(-c2ccc(C)c(C)c2)c1O [Synthetic Example 13, 1-{1-[5-(3,4-dimethylphenyl)-4-hydroxythiophen-3-yl]-ethylidene-hydrazinothiocarbonyl}-piperidine-4-carboxylic acid]",–
0.00566,"CC(=NNC(=S)N1CCC(C(=O)O)CC1)c1csc(-c2ccc(C(C)(C)C)cc2)c1O [Synthetic Example 14, 1-{1-[5-(4-t-butylphenyl)-4-hydroxy-thiophen-3-yl]-ethylidene-hydrazinothiocarbonyl}-piperidine-4-carboxylic acid]",–
0.00594,"CC(=NNC(=S)N1CCC(C(=O)O)CC1)c1csc(-c2cccc(Cl)c2)c1O [Synthetic Example 15, 1-{1-[5-(3-chlorophenyl)-4-hydroxythiophen-3-yl]-ethylidene-hydrazinothiocarbonyl}-piperidine-4-carboxylic acid]",–
0.00809,"CC(=NNC(=S)N1CCC(C(=O)O)CC1)c1nn(C)c(-c2ccc(C(F)(F)F)cc2)c1O [Synthetic Example 16, 1-{1-[4-hydroxy-1-methyl-5-(4-trifluoromethylphenyl)-1H-pyrazol-3-yl]-ethylidene-hydrazinothiocarbonyl}-piperidine-4-carboxylic acid]",–
0.0166,"CC(=NNC(=S)N1CCC(C(=O)O)CC1)c1nn(C)c(-c2ccc(Cl)c(Cl)c2)c1O [Synthetic Example 17, 1-{1-[5-(3,4-dichlorophenyl)-4-hydroxy-1-methyl-1H-pyrazol-3-yl]-ethylidene-hydrazinothiocarbonyl}-piperidine-4-carboxylic acid]",–
0.0466,"CC(=NNC(=S)N1CCCC(C(=O)O)C1)c1csc(-c2ccc(Cl)c(Cl)c2)c1O (centres unmarked) [Synthetic Example 18, 1-{1-[5-(3,4-dichlorophenyl)-4-hydroxythiophen-3-yl]-ethylidene-hydrazinothiocarbonyl}-piperidine-3-carboxylic acid]",–
0.0493,"CCN(CC)C(=O)C1CCN(C(=S)NN=C(C)c2csc(-c3ccc(Cl)c(Cl)c3)c2O)CC1 [Synthetic Example 19, 1-{1-[5-(3,4-dichlorophenyl)-4-hydroxythiophen-3-yl]-ethylidene-hydrazinothiocarbonyl}-piperidine-4-carboxylic acid diethylamide]",–
0.00698,"CC(=NNC(=S)N1CCC(O)CC1)c1csc(-c2ccc(Cl)c(Cl)c2)c1O [Synthetic Example 20, 1-{1-[5-(3,4-dichlorophenyl)-4-hydroxythiophen-3-yl]-ethylidene-hydrazinothiocarbonyl}-piperidin-4-ol]",–
0.0518,"CC(=NNC(=S)N1CCCC(O)C1)c1csc(-c2ccc(Cl)c(Cl)c2)c1O (centres unmarked) [Synthetic Example 21, 1-{1-[5-(3,4-dichlorophenyl)-4-hydroxythiophen-3-yl]-ethylidene-hydrazinothiocarbonyl}-piperidin-3-ol]",–
0.0458,"CC(=NNC(=S)N1CCC(CO)CC1)c1csc(-c2ccc(Cl)c(Cl)c2)c1O [Synthetic Example 22, 1-{1-[5-(3,4-dichlorophenyl)-4-hydroxythiophen-3-yl]-ethylidene-hydrazinothiocarbonyl}-piperidine-4-methanol]",–
0.0763,"COCCCNC(=S)NN=C(C)c1csc(-c2ccc(Cl)c(Cl)c2)c1O [Synthetic Example 23, 1-(2-{1-[5-(3,4-dichlorophenyl)-4-hydroxythiophen-3-yl]-ethylidene}-hydrazinocarbonothioyl)amino-3-methoxypropane]",–
